Reference: the RepoRT retention time repository

Assay: A: acetonitrile + 0.1% formic acid + 10 mM ammonium formate; B: 5% water + 95% acetonitrile + 0.1% formic acid + 10 mM ammonium formate; gradient (min/%B) 0/10 2/10 22/100 27/100 27.1/10
Settings: stereoisomer not certain

SMILES	LC retention time [min]
Nc1ncnc2c1ncn2C1OC(CO)C(O)C1O (configuration not stated) [Adenosine]	2.08
NCCCCN=C(N)N [Agmatine]	6.99
CC(C=CC=C(C)C=CC1=C(C)CCCC1(C)C)=CC=O [All trans-Retinal]	0.407
NC(=O)NC(NC(N)=O)C(=O)O [Allantoic acid]	6.54
NC(=O)NC1NC(=O)NC1=O (configuration not stated) [Allantoin]	3.1
O=c1[nH]cnc2[nH]ncc12 [Allopurinol]	0.996
CC(=O)OCC(=O)C12OC3(CCCC3)OC1CC1C3CCC4=CC(=O)C=CC4(C)C3(F)C(O)CC12C (configuration not stated) [Amcinonide]	0.433
NC(N)=NC(=O)c1nc(Cl)c(N)nc1N [Amiloride]	2.91
NC(CCCC(=O)O)C(=O)O (configuration not stated) [Aminoadipic acid]	6.5
CCCCc1oc2ccccc2c1C(=O)c1cc(I)c(OCCN(CC)CC)c(I)c1 [Amiodarone]	0.756
CN(C)CCC=C1c2ccccc2CCc2ccccc21 [Amitriptyline]	0.977
CCOC(=O)C1=C(COCCN)NC(C)=C(C(=O)OC)C1c1ccccc1Cl (configuration not stated) [Amlodipine]	2.02
CC1(C)SC2C(NC(=O)C(N)c3ccc(O)cc3)C(=O)N2C1C(=O)O (configuration not stated) [Amoxicillin]	5.79
CC1(C)SC2C(NC(=O)C(N)c3ccccc3)C(=O)N2C1C(=O)O (configuration not stated) [Ampicillin]	4.86
N#CC(OC1OC(COC2OC(CO)C(O)C(O)C2O)C(O)C(O)C1O)c1ccccc1 (configuration not stated) [Amygdalin]	4.24
O=c1cc(-c2ccc(O)cc2)oc2cc(O)cc(O)c12 [Apigenin]	0.481
COC(=O)C1=CCCN(C)C1 [Arecoline]	2.06
O=C1CCc2ccc(OCCCCN3CCN(c4cccc(Cl)c4Cl)CC3)cc2N1 [Aripiprazole]	1.25
COC(=O)C(Cc1ccccc1)NC(=O)C(N)CC(=O)O (configuration not stated) [Aspartame]	4
CC(C)NCC(O)COc1ccc(CC(N)=O)cc1 (configuration not stated) [Atenolol]	3.34
CNCCC(Oc1ccccc1C)c1ccccc1 (configuration not stated) [Atomoxetine]	1.02
O=C(O)CCCCCCCC(=O)O [Azelaic acid]	0.604
NCC(CC(=O)O)c1ccc(Cl)cc1 (configuration not stated) [Baclofen]	4.14

SMILES	LC retention time [min]
CCC(=O)OCC(=O)C1(OC(=O)CC)C(C)CC2C3CCC4=CC(=O)C=CC4(C)C3(Cl)C(O)CC21C (configuration not stated) [Beclometasone dipropionate]	0.416
OC(CCN1CCCCC1)(c1ccccc1)C1CCCCC1 (configuration not stated) [Benzhexol]	0.91
O=C(C=Cc1ccccc1)OCc1ccccc1 [Benzyl cinnamate]	0.413
COc1ccc2c(c1OC)=CN1CCc3cc4c(cc3C1C=2)OCO4 (configuration not stated) [Berberine]	0.872
C[N+](C)(C)CC(=O)[O-] [Betaine]	5.7
O=C(O)CN(CCO)CCO [Bicine]	6.2
C=CC1=C(C)C(=Cc2[nH]c(Cc3[nH]c(C=C4NC(=O)C(C)=C4C=C)c(C)c3CCC(=O)O)c(CCC(=O)O)c2C)NC1=O [Bilirubin]	0.518
COc1ccc(-c2coc3cc(O)cc(O)c3c2=O)cc1 [Biochanin A]	0.424
O=C(O)CCCCC1SCC2NC(=O)NC21 (configuration not stated) [Biotin]	1.17
CC(NC(C)(C)C)C(=O)c1cccc(Cl)c1 (configuration not stated) [Bupropion]	0.963
Cn1c(=O)c2c(ncn2C)n(C)c1=O [Caffeine]	0.477
CC12CCC(=O)C=C1C=CC1C2CCC2(C)C1CCC21CCC(=O)O1 (configuration not stated) [Canrenone]	0.429
CCCCCCCC(=O)NCC(=O)O [Capryloyl glycine]	0.943
CC(CS)C(=O)N1CCCC1C(=O)O (configuration not stated) [Captopril]	1.1
NC(=O)N1c2ccccc2C=Cc2ccccc21 [Carbamazepine]	0.469
NC(CSCC(=O)O)C(=O)O (configuration not stated) [Carbocysteine]	6.96
COc1ccccc1OCCNCC(O)COc1cccc2[nH]c3ccccc3c12 (configuration not stated) [Carvedilol]	1.03
O=C(O)COCCN1CCN(C(c2ccccc2)c2ccc(Cl)cc2)CC1 (configuration not stated) [Cetirizine]	1.33
O=C(C=Cc1ccc(O)c(O)c1)OC1CC(O)(C(=O)O)CC(O)C1O (configuration not stated) [Chlorogenic acid]	4.76
CN(C)CCCN1c2ccccc2Sc2ccc(Cl)cc21 [Chlorpromazine]	1
O=c1cc(-c2ccccc2)oc2cc(O)cc(O)c12 [Chrysin]	0.434
CN=C(NC#N)NCCSCc1nc[nH]c1C [Cimetidine]	2.59
C=CC1CN2CCC1CC2C(O)c1ccnc2ccccc12 (configuration not stated) [Cinchonidine]	2.2

SMILES	LC retention time [min]
CN(C)CCCC1(c2ccc(F)cc2)OCc2cc(C#N)ccc21 (configuration not stated) [Citalopram]	0.991
C[N+](C)(C)CCOP(=O)(O)OP(=O)([O-])OCC1OC(n2ccc(N)nc2=O)C(O)C1O (configuration not stated) [Citicoline]	8.51
CC(=CC(=O)O)C(=O)O [Citraconic acid]	0.78
CCN(CC)CCOc1ccc(C(=C(Cl)c2ccccc2)c2ccccc2)cc1 [Clomiphene]	0.799
CN(C)CCCN1c2ccccc2CCc2ccc(Cl)cc21 [Clomipramine]	0.942
CC12CCC(=O)C=C1CCC1C2CCC2(C)C1CCC2(O)C(=O)CO (configuration not stated) [Cortexolone]	0.459
CC12CCC(=O)C=C1CCC1C2C(O)CC2(C)C(C(=O)CO)CCC12 (configuration not stated) [Corticosterone]	0.472
O=c1ccc2ccccc2o1 [Coumarin]	0.431
CN(CC(=O)O)C(N)=NP(=O)(O)O [Creatine phosphate]	7.86
CN(CC(=O)O)C(=N)N [Creatine]	6.15
CN1CC(=O)NC1=N [Creatinine]	2.58
COc1cc(C=CC(=O)CC(=O)C=Cc2ccc(O)c(OC)c2)ccc1O [Curcumin]	0.431
NC(CCSCC(N)C(=O)O)C(=O)O (configuration not stated) [Cystathionine]	8.01
Nc1ccn(C2OC(COP(=O)(O)O)C(O)C2O)c(=O)n1 (configuration not stated) [Cytidine 5'-monophosphate]	7.4
Nc1ccn(C2OC(COP(=O)(O)OP(=O)(O)OP(=O)(O)O)C(O)C2O)c(=O)n1 (configuration not stated) [Cytidine 5'-triphosphate]	10.1
Nc1ccn(C2OC(CO)C(O)C2O)c(=O)n1 (configuration not stated) [Cytidine]	4.73
Nc1ccnc(=O)[nH]1 [Cytosine]	3.35
N[C@H]1C(O)O[C@H](CO)[C@@H](O)[C@@H]1O (stereo partly drawn) [D-(+)-Glucosamine]	6.72
OCC1OC(OCC2OC(OC3(CO)OC(CO)C(O)C3O)C(O)C(O)C2O)C(O)C(O)C1O [D-(+)-Raffinose]	7.42
O=C(CO)[C@@H](O)[C@H](O)[C@H](O)COP(=O)(O)O [D-Fructose-6-phosphate]	7.36
N[C@H]1C(O)O[C@H](COP(=O)(O)O)[C@@H](O)[C@@H]1O (stereo partly drawn) [D-Glucosamine 6-phosphate]	8.21
O=P(O)(O)OCC1OC(O)C(O)C(O)C1O [D-Glucose 6-phosphate]	7.76
O=P(O)(O)OCC1OC(O)C(O)C1O [D-Ribose 5-phosphate]	7.12

SMILES	LC retention time [min]
O=c1c(-c2ccc(O)cc2)coc2cc(O)ccc12 [Daidzein]	0.473
CC(=O)c1c(O)cc(C)oc1=O [DehydroacetIc acid]	0.444
O=c1[nH]cnc2c1ncn2C1CC(O)C(CO)O1 (configuration not stated) [Deoxyinosine]	2.64
CCCCOC(=O)CCCCCCCCC(=O)OCCCC [Dibutyl sebacate]	0.404
O=C(O)Cc1ccccc1Nc1c(Cl)cccc1Cl [Diclofenac acid]	0.456
OCCNCCO [Diethanolamine]	5.23
CCOC(=O)CC(=O)OCC [Diethyl malonate]	0.43
CCOC(=O)CCC(=O)OCC [Diethyl succinate]	0.425
O=C1CCNC(=O)N1 [Dihydrouracil]	0.746
O=C(CO)COP(=O)(O)O [Dihydroxyacetone phosphate]	6.59
COc1ccc(C2Sc3ccccc3N(CCN(C)C)C(=O)C2OC(C)=O)cc1 (configuration not stated) [Diltiazem]	1.04
CN(C)CCOC(c1ccccc1)c1ccccc1 [Diphenhydramine]	0.944
NCCc1ccc(O)c(O)c1 [Dopamine]	4.22
CN(C)CCC=C1c2ccccc2COc2ccccc21 [Doxepin]	1.04
CCN(Cc1cccc(S(=O)(=O)O)c1)c1ccc(C(=C2C=CC(=[N+](CC)Cc3cccc(S(=O)(=O)O)c3)C=C2)c2ccccc2S(=O)(=O)[O-])cc1 [Erioglaucine]	4.34
O=C1OC2(c3ccccc31)c1cc(I)c(O)c(I)c1Oc1c2cc(I)c(O)c1I [Erythrosine B]	0.57
O=c1ccc2cc(OC3OC(CO)C(O)C(O)C3O)c(O)cc2o1 (configuration not stated) [Esculin]	2.52
CCOC(=O)c1ccc(N)cc1 [Ethyl 4-aminobenzoate]	0.422
CCOC(=O)CC(C)=O [Ethyl acetoacetate]	0.418
O=C(O)CN(CCN(CC(=O)O)CC(=O)O)CC(=O)O [Ethylenediaminetetraacetic acid]	6.91
CCc1cccc2c3c([nH]c12)C(CC)(CC(=O)O)OCC3 (configuration not stated) [Etodolac]	0.453
CCOC(=O)c1cncn1C(C)c1ccccc1 (configuration not stated) [Etomidate]	0.602
NC(N)=Nc1nc(CSCCC(N)=NS(N)(=O)=O)cs1 [Famotidine]	2.9
